One data set addresses 229E mPRO (Human coronavirus 229E (HCoV-229E), UniProt P0C6X1). The experiment in a line: 229E mPRO enzymatic assay. The format is biochemical, Human Coronavirus (HCov) 229E. The conditions noted are these: read-out: 229E mPRO IC50.
Another data set deals with SARS-COV2 Mpro (Severe acute respiratory syndrome coronavirus 2 (2019-nCoV) (SARS-CoV-2), UniProt P0DTD1). The experiment in a line: COVID-19 (nCoV-2019, SARS-CoV2) Mpro enzymatic assay. The format is biochemical. The conditions noted are these: 25 nM Mpro, 25 μM substrate.
Data set [1] is described as follows: Cytotoxicity under 229E CPE assay conditions without virus infection (CellTiter Glo). In general terms: ATP-based viability assays read luminescence as a measure of living cells.
The subject of a further data set is HCoV 229E. The experiment in a line: HCoV 229E cytopathic effect (CPE) assay. The format is cell-based, Human Coronavirus (HCov) 229E. The conditions noted are these: unidentified human coronavirus, CellTiter Glo, read-out: 229 ECPE EC50. As to the method:
Compounds were assayed using standard methods against multiple coronaviral strains, including HCoV 229E and OC43 strains. The antiviral activity of compounds was calculated based on the protection of the virus-induced CPE at each concentration normalized by the virus control.
Cytopathic effect (CPE) was measured by CellTiter Glo following the manufacturer's manual. The antiviral activity of compounds was calculated based on the protection of the virus-induced CPE at each concentration normalized by the virus control.
For orientation: Protection from cytopathic effect is a common read-out in antiviral testing.

Where only a bound is given, the exact number is not on record here.

Sequence of 229E mPRO (P0C6X1 2966-3267 limits assumed): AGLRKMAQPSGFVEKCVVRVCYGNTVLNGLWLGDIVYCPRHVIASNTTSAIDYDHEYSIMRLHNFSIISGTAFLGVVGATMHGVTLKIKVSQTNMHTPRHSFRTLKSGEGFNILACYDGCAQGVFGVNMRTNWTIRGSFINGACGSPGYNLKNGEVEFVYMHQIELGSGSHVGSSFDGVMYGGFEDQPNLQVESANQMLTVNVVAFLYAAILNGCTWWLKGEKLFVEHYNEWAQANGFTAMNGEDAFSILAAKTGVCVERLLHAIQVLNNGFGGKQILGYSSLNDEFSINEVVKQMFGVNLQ
Description for 229E mPRO: Compounds were assayed using standard methods to assess compound activity and IC50. […] The assay buffer contained 20 mM of Tris-HCl (pH 7.3), 100 mM of NaCl, 1 mM of EDTA, 5 mM of TCEP and 0.1% BSA.
The compounds were added to an assay plate.
IC50 values of compounds were calculated with the GraphPad Prism software using the nonlinear regression model of log(inhibitor) vs. response—Variable slope (four parameters). The inhibition activity was calculated using the formula below, IC50 values was calculated using the Inhibition % data. Inhibition %=[(Sample−Average ZPE)/(Average HPE−Average ZPE)]*100%^# • ^#HEP: Hundred percent effect controls. […] Containing enzyme+substrate, no compound. • Sample: Compound activity testing wells. Containing compound+enzyme+substrate. • BG: Compound background control wells. Containing compound+substrate, no enzyme.

Consider `COc1cccc2[nH]c(C(=O)N[C@@H](CC(C)C)C(=O)N[C@@H](C#N)Cc3cc(=O)[nH]c4ccccc34)cc12` (mixture of isomers) [Compound 237], for which the IC50 on 229E mPRO and against SARS-COV2 Mpro was over 30 µM in each case.
For the compound `COc1cccc2[nH]c(C(=O)N[C@@H](CC(C)C)C(=O)N[C@H](C#N)Cc3cc[nH]n3)cc12` (mixture of isomers) [Compound 241], the IC50 on 229E mPRO and against SARS-COV2 Mpro was over 30 µM in each case.
In data set [1], `CC(C)CC(NC(=O)c1nc2ncccc2[nH]1)C(=O)NC(C#N)CC1CCNC1=O` (single isomer, unassigned) [130 (Isomer 1)] came in with a CC50 of over 30 µM.
As to `CC(C)(C)OC(=O)N1CCCCC12CCN([C@@H](CC1CC1)C(=O)N[C@H](C#N)C[C@@H]1CCNC1=O)C2=O` (single isomer, unassigned) [473 (Isomer 2)], the IC50 on 229E mPRO and on SARS-COV2 Mpro was over 30 µM each time.
Take `COc1cccc2[nH]c(C(=O)N[C@@H](CC3CC3)C(=O)N[C@@]3(C#N)CC4CCC3[C@H]3C(=O)NC(=O)[C@@H]43)cc12` (single isomer, unassigned) [489 (Isomer 1)]: the IC50 on 229E mPRO and against SARS-COV2 Mpro was over 30 µM in each case.
`N#CC1(NC(=O)[C@H](CC2CC2)NC(=O)OCc2ccccc2)C[C@H]2CC[C@@H]1[C@H]1C(=O)NC(=O)[C@@H]21` (single isomer, unassigned) [495 (Isomer 1)]: the IC50 on 229E mPRO and against SARS-COV2 Mpro was over 30 µM each time.
For the compound `COc1cccc2[nH]c(C(=O)N3CC4(CCC4)CC3C(=O)N[C@H](C#N)C[C@@H]3CCCNC3=O)cc12` (single isomer, unassigned) [719 (Isomer 2)], the IC50 at 229E mPRO and on SARS-COV2 Mpro was under 22 µM in each case. Further, the EC50 in the data set on HCoV 229E was under 22 µM.
As for `COc1cccc2[nH]c(C(=O)N[C@@H](CC(C)C)C(=O)N[C@@H](C[C@@H]3CCNC3=O)C(O)C#N)cc12` (stereo partly drawn) [Compound 135, N-[(1S)-1-[[(1S)-2-cyano-2-hydroxy-1-[[(3S)-2-oxopyrrolidin-3-yl]methyl]ethyl]carbamoyl]-3-methyl-butyl]-4-methoxy-1H-indole-2-carboxamide], the EC50 with HCoV 229E was under 22 µM. The CC50 in the data set “in vitro” is over 30 µM.
`COc1cccc2[nH]c(C(=O)N3CC(c4ccccc4)CC3C(=O)NC(C#N)CC3CCNC3=O)cc12` (stereo not drawn) [Compound 170] gave a CC50 in the data set “in vitro” of over 30 µM.
`COc1cccc2[nH]c(C(=O)N[C@@H](CC(C)C)C(=O)N[C@H](C#N)Cc3cncn3C)cc12` [Compound 225, N-[(1S)-1-[[(1S)-1-cyano-2-(3-methylimidazol-4-yl)ethyl]carbamoyl]-3-methyl-butyl]-4-methoxy-1H-indole-2-carboxamide]: the IC50 at 229E mPRO and against SARS-COV2 Mpro was over 30 µM throughout.
With `N#C[C@H](C[C@@H]1CCNC1=O)NC(=O)[C@H](CC1CC1)n1ccc2[nH]cnc2c1=O` [Compound 269], the IC50 on 229E mPRO and at SARS-COV2 Mpro was over 30 µM throughout.
As for `COc1cccc2[nH]c(C(=O)N[C@@H](CC3CC3)C(=O)N[C@@]3(C#N)CCc4cccnc4C3)cc12` [Compound 279], the IC50 on 229E mPRO and on SARS-COV2 Mpro was over 30 µM throughout.
As to `COc1cccc2[nH]c(C(=O)N[C@@H](CC(C)C)C(=O)N[C@@H](C[C@@H]3CCNC3=O)C(C#N)Nc3ccccc3)cc12` (stereo partly drawn) [Compound 327], the half-inhibitory concentration (IC50) on 229E mPRO and on SARS-COV2 Mpro was under 22 µM throughout. In addition, the 50% effective concentration (EC50) with HCoV 229E was in the range of 2 to 10 µM.
Take `CC[C@H]1CN(C(=O)c2cc3c(OC)cccc3[nH]2)[C@@H]1C(=O)N[C@H](C#N)C[C@@H]1CCNC1=O` [Compound 391]: the IC50 on 229E mPRO and at SARS-COV2 Mpro was over 30 µM throughout.
With `COc1cccc2[nH]c(C(=O)N[C@@H](CC(C)C)C(=O)N[C@H](C#N)Cc3ccccn3)cc12` [Compound 439], the IC50 on 229E mPRO is over 30 µM; against SARS-COV2 Mpro it was 10 to 30 µM.
For the compound `N#C[C@H](C[C@@H]1CCNC1=O)NC(=O)[C@@H]1CS[C@H]2CC[C@H](N)C(=O)N21` [Compound 479], the figures for the IC50 on 229E mPRO and on SARS-COV2 Mpro were 10 to 30 µM and over 30 µM, respectively.
Consider `N#C[C@H](C[C@@H]1CCNC1=O)NC(=O)[C@@H]1CCc2ccc(NCC(=O)Oc3ccccc3)c(=O)n21` [Compound 483], for which the IC50 on 229E mPRO and against SARS-COV2 Mpro was over 30 µM in each case.
For the compound `N#C[C@H](C[C@@H]1CCNC1=O)NC(=O)[C@@H]1CCc2ccc(NCC(=O)O)c(=O)n21` [Compound 501], the IC50 at 229E mPRO and at SARS-COV2 Mpro was over 30 µM each time.
Take `COc1nccc2[nH]c(C(=O)N[C@@H](CC3CC3)C(=O)N[C@H](C#N)C[C@@H]3CCCNC3=O)cc12` [Compound 623]: the IC50 at 229E mPRO and against SARS-COV2 Mpro was over 30 µM in each case.
Consider `COc1cccc2[nH]c(C(=O)N[C@@H](CC(C)(C)C)C(=O)N[C@H](C#N)C[C@@H]3CCCNC3=O)cc12` [Compound 643, N-[(1S)-1-[[(1S)-1-cyano-2-[(3S)-2-oxo-3-piperidyl]ethyl]carbamoyl]-3,3-dimethyl-butyl]-4-methoxy-1H-indole-2-carboxamide], for which the IC50 at 229E mPRO was under 22 µM. Besides, the EC50 in the data set with HCoV 229E is under 22 µM.
For the compound `COc1cccc2[nH]c(C(=O)N[C@@H](CC(C)C)C(=O)N[C@@H](C[C@@H]3CCNC3=O)C(C#N)NCC(=O)O)cc12` (stereo partly drawn) [Compound 653], the IC50 on 229E mPRO and against SARS-COV2 Mpro was under 22 µM throughout. The half-maximal effective concentration (EC50) in the data set with HCoV 229E is under 22 µM.
Take `COc1cccc2[nH]c(C(=O)N[C@H](CN[C@H](C#N)C[C@@H]3CCNC3=O)CC(C)(C)C)cc12` [Compound 659]: the IC50 at 229E mPRO and against SARS-COV2 Mpro was over 30 µM in each case.

What is called IC50 is the concentration that gives 50% inhibition. The EC50 is the midpoint of the concentration-response curve.

The record behind these values is patent publication US11124497B1, “Inhibitors of cysteine proteases and methods of use thereof” (priority 2020, dated 2021).
